The values below come from publication PMC11915375 (ACS Infectious Diseases, 2025).

Where two headings read alike, the source gives them in different places. Bounds are passed on as bounds.

For assay [1], the system named is T. brucei. The settings on record: read-out: T. brucei EC50; assay run at NYU; cited from earlier work.
Assay [2] concerns T. cruzi. To be noted: read-out: T. cruzi EC50; different host cell line (NIH3T3), assay run at NYU; cited from earlier work.
The test system of assay [3] is Leishmania major amastigotes. The settings on record: read-out: L. maj EC50; 12a, 12b previously reported compounds; cited from earlier work.
The test system of assay [4] is Leishmania major amastigotes. As to the kind of experiment: Leishmania major amastigote assay. Format: cell-based. The settings on record: Leishmania major, read-out: L. maj EC50.
The test system of assay [5] is T. brucei. The assay can be described thus: T. brucei proliferation inhibition assay. Format: cell-based, Trypanosoma brucei. To be noted: Trypanosoma brucei, read-out: T. brucei EC50 ± S.D.
Assay [6] has as its system S. mansoni adult worms. As to the kind of experiment: S. mansoni adult worm phenotypic assay. Format: cell-based, Schistosoma mansoni. To be noted: scale 0-4.
For assay [7], the system named is T. cruzi CA-I/72. As to the kind of experiment: T. cruzi in vitro assay, C2C12 host cell. The assay is classed as cell-based, Trypanosoma cruzi. The settings on record: Trypanosoma cruzi, C2C12, read-out: T. cruzi EC50.
Assay [8] concerns L. donovani. As to the kind of experiment: L. donovani in vitro assay. Format: cell-based, Leishmania donovani. The settings on record: Leishmania donovani, read-out: L. don EC50, B10R host cell line.

By EC50 is commonly meant the concentration at which the effect is half-maximal. On to `CN1CCN(S(=O)(=O)c2ccc(-c3ccc4nncc(Nc5ccc(OCc6cccc(F)c6)c(Cl)c5)c4c3)cc2)CC1` [Compound 12a, N-(3-Chloro-4-((3-fluorobenzyl)oxy)phenyl)-6-(4-((4-methylpiperazin-1-yl)sulfonyl)phenyl)cinnolin-4-amine], for which the half-maximal effective concentration (EC50) in assay [1] is 980 nM; in assay [2], above 50000 nM; in assay [3], 1900 nM.

Take `CN1CCN(S(=O)(=O)c2ccc(-c3ccc4c(Nc5ccc(OCc6cccc(F)c6)c(Cl)c5)cnnc4c3)cc2)CC1` [Compound 12b, N-(3-Chloro-4-((3-fluorobenzyl)oxy)phenyl)-7-(4-((4-methylpiperazin-1-yl)sulfonyl)phenyl)cinnolin-4-amine]: the concentration giving a half-maximal response (EC50) was 1000 nM in assay [1], 3100 nM in assay [2] and 2000 nM in assay [3].

In the case of `COc1ccc(Nc2cnnc3cc(-c4ccc(S(=O)(=O)N5CCN(C)CC5)cc4)ccc23)cc1Cl` [Compound 17b, N-(3-Chloro-4-methoxyphenyl)-7-(4-((4-methylpiperazin-1-yl)sulfonyl)phenyl)cinnolin-4-amine], the EC50 is above 1900 nM in assay [4], 8300 ± 350 nM in assay [5] and above 10000 nM in assay [7]. For the same molecule, the “Adult severity score (10 µM) 5 h” value in assay [6] is 4.

Consider `CN1CCN(c2ccc(-c3ccc4c(Nc5ncc(Cl)cn5)cnnc4c3)cc2)CC1` [Compound 22b, N-(5-Chloropyrimidin-2-yl)-7-(4-(4-methylpiperazin-1-yl)phenyl)cinnolin-4-amine], for which the half-maximal effective concentration (EC50) was 4200 nM in assay [4], above 10000 nM in assay [8], 720 ± 470 nM in assay [5] and 2300 nM in assay [7].

On to `COc1ccc(Nc2cnnc3ccc(-c4ccc(N5CCN(C)CC5)cc4)cc23)cc1` [Compound 23a, N-(4-Methoxyphenyl)-6-(4-(4-methylpiperazin-1-yl)phenyl)cinnolin-4-amine], for which the EC50 in assay [4] came out at 4700 nM; in assay [8], 2300 nM; in assay [5], 310 ± 180 nM; in assay [7], 1700 nM.

Consider `CN1CCN(c2ccc(-c3ccc4nncc(Nc5ccc(OC(F)(F)F)cc5)c4c3)cc2)CC1` [Compound 24a, 6-(4-(4-Methylpiperazin-1-yl)phenyl)-N-(4-(trifluoromethoxy)phenyl)cinnolin-4-amine], for which the concentration for a half-maximal effect (EC50) in assay [4] was above 21000 nM; in assay [8], 520 nM; in assay [5] it was 410 ± 24 nM; in assay [7], 870 nM.

Regarding `COc1cnc(Nc2cnnc3ccc(-c4ccc(N5CCN(C)CC5)cc4)cc23)nc1` [Compound 25a, N-(5-Methoxypyrimidin-2-yl)-6-(4-(4-methylpiperazin-1-yl)phenyl)cinnolin-4-amine], the EC50 in assay [4] was above 4700 nM; in assay [8] it was 9400 nM; in assay [5] it was 1200 ± 380 nM; in assay [7], 6100 nM.

Consider `COc1ccc(Nc2cnnc3ccc(-c4cnc(N5CCN(C)CC5)nc4)cc23)cc1` [Compound 27a, N-(4-Methoxyphenyl)-6-(2-(4-methylpiperazin-1-yl)pyrimidin-5-yl)cinnolin-4-amine], for which the EC50 is above 23000 nM in assay [4], above 10000 nM in assay [8], 1300 ± 270 nM in assay [5] and 4400 nM in assay [7].

For the molecule `CN1CCN(c2ncc(-c3ccc4nncc(Nc5ccc(OC(F)(F)F)cc5)c4c3)cn2)CC1` [Compound 28a, 6-(2-(4-Methylpiperazin-1-yl)pyrimidin-5-yl)-N-(4-(trifluoromethoxy)phenyl)cinnolin-4-amine], the concentration for a half-maximal effect (EC50) in assay [4] is above 21000 nM; in assay [8], 1500 nM; in assay [5] it was 1000 ± 120 nM; in assay [7], 4200 nM.

Take `CN1CCCN(c2ncc(-c3ccc4nncc(Nc5ncc(Cl)cn5)c4c3)cn2)CC1` [Compound 29a, N-(5-Chloropyrimidin-2-yl)-6-(2-(4-methyl-1,4-diazepan-1-yl)pyrimidin-5-yl)cinnolin-4-amine]: the EC50 in assay [4] was above 22000 nM; in assay [8], 220 nM; in assay [5], 1700 ± 500 nM; in assay [7], 6700 nM.

With `COc1ccc(Nc2cnnc3ccc(-c4cnc(N5CCCN(C)CC5)nc4)cc23)cc1` [Compound 30a, N-(4-Methoxyphenyl)-6-(2-(4-methyl-1,4-diazepan-1-yl)pyrimidin-5-yl)cinnolin-4-amine], the EC50 was above 23000 nM in assay [4], above 10000 nM in assay [8], 2100 ± 640 nM in assay [5] and 5100 nM in assay [7].

As for `CN1CCCN(c2ncc(-c3ccc4nncc(Nc5ccc(OC(F)(F)F)cc5)c4c3)cn2)CC1` [Compound 31a, 6-(2-(4-Methyl-1,4-diazepan-1-yl)pyrimidin-5-yl)-N-(4-(trifluoromethoxy)phenyl)cinnolin-4-amine], the EC50 in assay [4] was above 20000 nM; in assay [8], above 10000 nM; in assay [5] it was 250 ± 110 nM; in assay [7], above 10000 nM.

Take `COc1cnc(Nc2cnnc3ccc(-c4cnc(N5CCCN(C)CC5)nc4)cc23)nc1` [Compound 32a, N-(5-Methoxypyrimidin-2-yl)-6-(2-(4-methyl-1,4-diazepan-1-yl)pyrimidin-5-yl)cinnolin-4-amine]: the 50% effective concentration (EC50) in assay [4] was above 23000 nM; in assay [8], 8000 nM; in assay [5], 2900 ± 800 nM; in assay [7], above 10000 nM.

On to `CN1CCCN(S(=O)(=O)c2ccc(-c3ccc4nncc(Nc5ncc(Cl)cn5)c4c3)cc2)CC1` [Compound 33a, N-(5-Chloropyrimidin-2-yl)-6-(4-((4-methyl-1,4-diazepan-1-yl)sulfonyl)phenyl)cinnolin-4-amine], for which the 50% effective concentration (EC50) in assay [4] was 17000 nM; in assay [8], above 10000 nM; in assay [5], 990 ± 290 nM; in assay [7], 5300 nM.

For `CN1CCCN(S(=O)(=O)c2ccc(-c3ccc4nncc(Nc5ccc(OC(F)(F)F)cc5)c4c3)cc2)CC1` [Compound 34a, 6-(4-((4-Methyl-1,4-diazepan-1-yl)sulfonyl)phenyl)-N-(4-(trifluoromethoxy)phenyl)cinnolin-4-amine], the EC50 in assay [4] is above 18000 nM; in assay [8], 1800 nM; in assay [5] it was 650 ± 21 nM; in assay [7] it was above 10000 nM.
